Tested on: men with the diagnosis of erectile dysfunction and chronic prostatitis
Assay: Clinical study of the BAA versus its single components (IIEF questionnaire, patient diaries), medical center "Secrets of Longevity"
Type: in vivo, human
Settings: 2 tablets twice a day
Experimental: For the prevention of erectile dysfunction, the BAA in compound of L-Arginine—250 mg, drone brood—50 mg is taken by 2 tablets two times per day during one month out of meals. An interval during the intake is one month. […] The study included […] with the diagnosis of erectile dysfunction and chronic prostatitis, at the age from 30 to 50 years old (average age is 43). The duration of erectile dysfunction was from 6 months to 3 years (average duration is one year). A consent was received from all males participated in the study.
The experimental group (10 patients) was appointed to the proposed agent by 2 tablets twice a day in the morning hours. The 1-st experimental group (10 patients) was administered L-Arginine—250 mg, 2 tablets 2 times per day in the morning hours.
The 2-nd experimental group (10 patients) was administered drone brood—50 mg, 2 tablets 2 times per day in the morning hours. Patients' examination involved the checkup, collection of complains in accordance with the symptoms scale 1P88, and questionnaire of International Index of Erectile Function (IIEF), with consideration of objective factors: ultrasound investigation of prostate gland, clinical blood analysis, urine test, including the results of prostate gland palpation. Patients' examination took place before and after the agent prescription.
An efficiency of the claimed agent was evaluated by the change of IIEF's exponents. Within a week, prior to and during the course of agent intake, patients were keeping a diary of disease estimation, and they recorded the frequency and degree of sexual attraction, valuation of erection, frequency of sexual intercourse and their sensations in each case.

For `N=C(N)NCCC[C@H](N)C(=O)O` [L-Arginine], the “full sexual relations provided or not” value was “not providing the full sexual relations”, the “effect starts within ... after taking of the agent” value (irrespective of age and extent of sexual disorder) was 2 to 3 h and the erectile function (10 patients per group) was 20%. The “feeling of orgasm, change of sensations” value (10 patients per group) was 20%, the “number of ejaculations has grown up (share of cases)” value (10 patients per group) was 20% and the overall satisfaction (10 patients per group) was 20%. For the same molecule, the “refractory period after the emission of seminal fluid has not changed (share of patients)” value (10 patients per group) was 100%, the sexual intercourse satisfaction (10 patients per group) was 20% and the “strengthening of sexual attraction (libido) recorded (share of cases)” value (10 patients per group) was 100%.

— patent publication US20140065237A1, “BIOLOGICALLY ACTIVE FOOD ADDITIVE FOR THE PROPHYLAXIS OF ERECTILE DYSFUNCTION IN MEN” (priority 2011, published 2014)
